Measurements reported in patent US8697888B2, “Substituted (1-(methylsulfonyl)azetidin-3-yl)(heterocycloalkyl)methanone analogs as antagonists of muscarinic acetylcholine M1 receptors” (Vanderbilt University, priority 2012, dated 2014).
pIC50: −log10 of the molar value.

Biological target: T1, mAChR M1 (UniProt P11229)
T1 sequence (P11229 1-460): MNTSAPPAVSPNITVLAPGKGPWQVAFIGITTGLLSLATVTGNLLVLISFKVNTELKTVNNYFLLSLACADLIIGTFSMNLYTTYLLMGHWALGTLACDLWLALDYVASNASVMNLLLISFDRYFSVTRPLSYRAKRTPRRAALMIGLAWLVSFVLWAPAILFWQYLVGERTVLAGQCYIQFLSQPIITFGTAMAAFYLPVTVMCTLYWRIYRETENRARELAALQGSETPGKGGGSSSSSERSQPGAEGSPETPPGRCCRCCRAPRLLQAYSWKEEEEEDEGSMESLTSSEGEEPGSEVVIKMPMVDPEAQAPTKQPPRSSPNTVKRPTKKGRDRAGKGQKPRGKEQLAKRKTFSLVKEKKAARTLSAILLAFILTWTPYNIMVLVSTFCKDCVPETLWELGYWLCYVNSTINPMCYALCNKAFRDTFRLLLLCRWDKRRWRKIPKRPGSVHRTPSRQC
Experiment: mAChR M1 cell-based functional assay (calcium mobilization, antagonist mode)
Conditions: for Remaining Activity (%): activity remaining at top dose of 30 μM test compound, as percentage of the response to an approx. EC80 concentration of ACh; for pIC50: concentration of antagonist decreasing calcium flux by 50%, EC80 acetylcholine response, CHO-K1 cells expressing mAChR M1, read-out: Potency (IC50)
Description: Chinese hamster ovary (CHO-K1) cells stably expressing rat (r)M1 were purchased from the American Type Culture Collection and cultured according to their indicated protocol. CHO cells stably expressing human (h)M2, hM3, and hM5 were described previously (Levey, et al., 1991); hM1 and hM4 cDNAs were purchased from Missouri S&T cDNA Resource; rM4 cDNA was provided by T. I. Bonner (National Institutes of Health, Bethesda, Md.). rM2 and rM3 were cloned from a rat brain cDNA library and sequence verified. hM1, rM2, rM3, hM4, and rM4 cDNAs were used to stably transfect CHO-K1 cells purchased from the American Type Culture Collection using Lipofectamine-2000. To make stable rM2, hM2, rM3, hM4, and rM4 cell lines for use in calcium mobilization assays, these cells also were stably transfected with a chimeric G-protein (Gqi5) (provided by B. R. Conklin, University of California, San Francisco) using Lipofectamine 2000. rM1, hM1, rM3, hM3, rM5, and hM5 cells were grown in Ham's F-12 medium containing 10% heat-inactivated fetal bovine serum (FBS), 20 mM HEPES, and 50 μg/mL G418 sulfate. rM2-Gqi5, hM2-Gqi5, and hM4-Gqi5 cells were grown in the same medium also containing 500 μg/mL Hygromycin B. Stable rM4-Gqi5 cells were grown in DMEM containing 10% heat-inactivated FBS, 20 mM HEPES, 400 μg/mL G418 sulfate, and […].
For high throughput measurement of antagonist inhibited increases in intracellular calcium, CHO-K1 cells stably expressing muscarinic receptors were plated in growth medium lacking G418 and hygromycin at 15,000 cells/20 μL/well in Greiner 384-well black-walled, tissue culture (TC)-treated, clear-bottom plates (VWR). Cells were incubated overnight at 37° C. and 5% CO2. The next day, cells were washed using an ELX 405 (BioTek) with four washes (80 μL) of assay buffer then aspirated to 20 μL. Next, 20 μL of 16 μM Fluo-4/acetoxymethyl ester (Invitrogen, Carlsbad, Calif.) prepared as a 2.3 mM stock in DMSO and mixed in a 1:1 ratio with 10% (w/v) Pluronic F-127 and diluted in assay buffer was added to the wells and the cell plates were incubated for 50 min at 37° C. and 5% CO2. Dye was removed by washing with the ELX 405 (four 80 μL washes of assay buffer) then aspirated to 20 μL. Compound master plates were formatted in an 11 point CRC format (1:3 dilutions) in 100% DMSO with a starting concentration of 10 mM using the BRAVO liquid handler (Agilent). Test compound CRCs were then transferred to daughter plates (240 nL) using the Echo acoustic plate reformatter (Labcyte, Sunnyvale, Calif.) and then diluted into assay buffer (40 μL) to a 2× stock using a Thermo Fisher Combi (Thermo Fisher Scientific, Waltham, Mass.).
Calcium flux was measured using the Functional Drug Screening System (FDSS) 6000 (Hamamatsu Corporation, Tokyo, Japan) as an increase in the fluorescent static ratio. Compounds were applied to cells (20 μL, 2×) using the automated system of the FDSS 6000 at 4 s into the 300 s protocol and the data were collected at 1 Hz. At 144 s into the 300 s protocol, 10 μL of an EC20 concentration of the muscarinic receptor agonist acetylcholine was added (5×), followed by the addition of 12 μL an EC80 concentration of acetylcholine at the 230 s time point (5×). Agonist activity was analyzed as a concentration-dependent increase in calcium mobilization upon compound addition. Positive allosteric modulator activity was analyzed as a concentration-dependent increase in the EC20 acetylcholine response. Antagonist activity was analyzed as a concentration-dependent decrease in the EC80 acetylcholine response. Concentration-response curves were generated using a four-parameter logistical equation in XLfit curve fitting software (IDBS, Bridgewater, N.J.) for Excel (Microsoft, Redmond, Wash.) or Prism (GraphPad Software, Inc., San Diego, Calif.).
The calcium mobilization assay was used to determine “potency”.

Structure (SMILES)	Remaining Activity (%)	pIC50
O=C(C1CN(S(=O)(=O)c2ccc(OC(F)F)cc2)C1)N1CCN(c2ccncc2)CC1 [B63]	≧80%	< 5.00
Cn1nccc1-c1cccc(S(=O)(=O)N2CC(C(=O)N3CCN(c4ccncc4)CC3)C2)c1 [B65]	≧80%	< 5.00
Cn1cnc(S(=O)(=O)N2CC(C(=O)N3CCN(c4ccncc4)CC3)C2)c1 [B66]	≧80%	< 5.00
O=C(C1CN(S(=O)(=O)c2cccc(OC(F)(F)F)c2)C1)N1CCN(c2ccncc2)CC1 [B69]	≧80%	< 5.00
O=C(C1CN(S(=O)(=O)c2ccc(N3CCOCC3)nc2)C1)N1CCN(c2ccncc2)CC1 [B74]	≧80%	< 5.00
O=C(C1CN(S(=O)(=O)c2ccc3[nH]c(=O)oc3c2)C1)N1CCN(c2ccncc2)CC1 [B75]	≧80%	< 5.00
CN1CCN(C(=O)C2CN(S(=O)(=O)c3cccc4cnccc34)C2)CC1 [B80]	≧80%	< 5.00
CC(C)S(=O)(=O)N1CC(C(=O)N2CC3CN(c4ccncc4)CC3C2)C1 (stereo not shown) [B84]	≧80%	< 5.00
CCC(C)S(=O)(=O)N1CC(C(=O)N2CC3CN(c4ccncc4)CC3C2)C1 (stereo not shown) [B85]	≧80%	< 5.00
O=C(C1CN(S(=O)(=O)C2CCCCC2)C1)N1CC2CN(c3ccncc3)CC2C1 (stereo not shown) [B86]	≧80%	< 5.00

Next, values leading:

Remaining Activity (%)	pIC50	Structure (SMILES)
≧80%	< 5.00	Cn1ccc(-c2ccccc2S(=O)(=O)N2CC(C(=O)N3CCN(c4ccncc4)CC3)C2)n1 [B64]
≧80%	< 5.00	O=C(C1CN(S(=O)(=O)c2ccncc2)C1)N1CCN(c2ccncc2)CC1 [B67]
≧80%	< 5.00	O=C(C1CN(S(=O)(=O)c2cccc(OC(F)F)c2)C1)N1CCN(c2ccncc2)CC1 [B68]
≧80%	< 5.00	O=C(C1CN(S(=O)(=O)c2ccc3[nH]c(=O)sc3c2)C1)N1CCN(c2ccncc2)CC1 [B70]
≧80%	< 5.00	Cc1nc(-c2cccc(S(=O)(=O)N3CC(C(=O)N4CCN(c5ccncc5)CC4)C3)c2)no1 [B71]
≧80%	< 5.00	O=C(C1CN(S(=O)(=O)c2cccc(-n3cnnn3)c2)C1)N1CCN(c2ccncc2)CC1 [B72]
≧80%	< 5.00	CN1CCOc2cc(S(=O)(=O)N3CC(C(=O)N4CCN(c5ccncc5)CC4)C3)cnc21 [B73]
≧80%	< 5.00	O=C(C1CN(S(=O)(=O)c2ccc3[nH]ncc3c2)C1)N1CCN(c2ccncc2)CC1 [B76]
≧80%	< 5.00	O=C(C1CN(S(=O)(=O)c2ccc3ccccc3c2)C1)N1CCN(c2ccncc2)CC1 [B77]
≧80%	< 5.00	O=C1CCc2cc(S(=O)(=O)N3CC(C(=O)N4CCN(c5ccncc5)CC4)C3)ccc2N1 [B79]
≧80%	< 5.00	O=C(C1CN(S(=O)(=O)C2CCOCC2)C1)N1CCN(c2ccncc2)CC1 [B81]
≧80%	< 5.00	O=C(NC1CCN(c2ccccc2)C1)C1CN(S(=O)(=O)c2cccc3cnccc23)C1 (stereo not shown) [B82]
≧80%	< 5.00	Cn1cc(S(=O)(=O)N2CC(C(=O)N3CC4CN(c5ccncc5)CC4C3)C2)cn1 (stereo not shown) [B83]
